Data published in US6599913B1, “Treating allergic and inflammatory conditions” (Schering Corporation, priority 2001, dated 2003).

Assays:
human OATP1 = target: T1, human OATP1 (Homo sapiens, UniProt P46721); details: at 10 μM; cited from earlier work
T1 sequence (P46721 1-670): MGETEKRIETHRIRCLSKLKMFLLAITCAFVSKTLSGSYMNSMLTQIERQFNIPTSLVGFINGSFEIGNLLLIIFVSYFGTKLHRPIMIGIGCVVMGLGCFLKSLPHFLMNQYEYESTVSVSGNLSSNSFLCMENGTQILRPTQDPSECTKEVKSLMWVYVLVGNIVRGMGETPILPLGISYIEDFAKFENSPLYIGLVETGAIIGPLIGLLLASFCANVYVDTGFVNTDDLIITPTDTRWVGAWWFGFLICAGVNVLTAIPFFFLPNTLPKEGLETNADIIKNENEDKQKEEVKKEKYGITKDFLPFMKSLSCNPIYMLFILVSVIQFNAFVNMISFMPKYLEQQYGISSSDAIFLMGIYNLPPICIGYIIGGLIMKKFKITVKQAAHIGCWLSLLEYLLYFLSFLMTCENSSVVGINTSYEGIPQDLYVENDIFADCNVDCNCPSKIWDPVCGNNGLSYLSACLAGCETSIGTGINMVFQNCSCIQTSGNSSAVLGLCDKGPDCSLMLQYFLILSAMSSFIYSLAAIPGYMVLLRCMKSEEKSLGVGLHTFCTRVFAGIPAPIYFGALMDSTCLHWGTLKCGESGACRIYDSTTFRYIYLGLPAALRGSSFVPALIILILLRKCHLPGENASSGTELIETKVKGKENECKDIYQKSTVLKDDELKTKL

human OATP = target: T2, human OATP (Homo sapiens, UniProt P46721); details: cited from earlier work
T2 sequence (P46721 1-670): T1 sequence (P46721 1-670)

P-gp = P-gp (UniProt P21448); details: ATP hydrolysis
Procedure: The invention will be further described by reference to the following study.
A direct functional assay was performed with […] as described previously. Ibid. The consumption of ATP was determined by the liberated inorganic orthophosphate, which forms a color complex with molybdate.
If a compound is a substrate of P-gp the hydrolysis of ATP is required as the driving force. As ATP is consumed at a purported rate of about one or two per transport event, the hydrolysis of ATP represents transport rate or activity assay of function. […] Any change in the rate of ATP hydrolysis represents the sum of the basal activity and the contribution of the exogenous substrate to ATP hydrolysis.

rat OATP1 = target: T3, rat OATP1 (Rattus norvegicus, UniProt P46720); details: cited from earlier work
T3 sequence (P46720 1-670): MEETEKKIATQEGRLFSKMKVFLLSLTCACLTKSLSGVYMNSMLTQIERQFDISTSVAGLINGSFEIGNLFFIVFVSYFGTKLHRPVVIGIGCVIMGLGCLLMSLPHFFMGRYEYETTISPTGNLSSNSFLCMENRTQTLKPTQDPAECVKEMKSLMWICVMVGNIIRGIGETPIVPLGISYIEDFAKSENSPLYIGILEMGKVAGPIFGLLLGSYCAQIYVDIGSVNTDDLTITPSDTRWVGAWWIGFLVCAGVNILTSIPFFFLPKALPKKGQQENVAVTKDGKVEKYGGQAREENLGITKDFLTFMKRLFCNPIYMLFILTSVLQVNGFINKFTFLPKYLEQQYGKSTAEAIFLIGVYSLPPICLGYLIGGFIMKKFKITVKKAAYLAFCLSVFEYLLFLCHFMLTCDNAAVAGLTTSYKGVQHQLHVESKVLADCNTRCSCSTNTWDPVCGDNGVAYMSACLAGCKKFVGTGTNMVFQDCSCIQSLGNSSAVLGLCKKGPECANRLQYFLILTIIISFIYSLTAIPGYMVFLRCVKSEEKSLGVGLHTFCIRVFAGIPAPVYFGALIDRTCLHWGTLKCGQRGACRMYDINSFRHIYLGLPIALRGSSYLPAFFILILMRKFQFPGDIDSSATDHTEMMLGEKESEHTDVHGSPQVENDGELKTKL

[1] = Treatment of chronic idiopathic urticaria; details: oral administration
[2] = Double-blinded randomized clinical trials in seasonal allergic rhinitis
Procedure: Efficacy endpoints in all the studies were Total Symptom Score, Total Nasal Symptom Score, Total Non-nasal Symptom Score, and Health Quality of Life (HQOL) analysis in efficacy trials. […] This parameter measures the total symptom relief by the patient after 24 hours before taking the next day dose.

Compound: CC(C)c1nc(CN(C)C(=O)N[C@H](C(=O)N[C@@H](Cc2ccccc2)C[C@H](O)[C@H](Cc2ccccc2)NC(=O)OCc2cncs2)C(C)C)cs1 [ritonavir]
- Inhibition of human OATP1 (human OATP1): effectively inhibit
- Inhibition of fexofenadine uptake (human OATP): significant inhibition

Compound: CCOC(=O)N1CCC(=C2c3ccc(Cl)cc3CCc3cccnc32)CC1 [loratadine]
- Vmax above basal activity (P-gp; FIG. 3): ≈ 200%
- Vmax as % of basal (control) activity (P-gp; without H33342): about 200%

Compound: APD-ajmalinium
- Transport by rat OATP (rat OATP1): transports

Compound: CC(C)(C)NC(=O)[C@@H]1C[C@@H]2CCCC[C@@H]2CN1C[C@@H](O)[C@H](Cc1ccccc1)NC(=O)[C@H](CC(N)=O)NC(=O)c1ccc2ccccc2n1 [saquinavir]
- Inhibition of human OATP1 (human OATP1): effectively inhibit
- Inhibition of fexofenadine uptake (human OATP): significant inhibition

Compound: Clc1ccc2c(c1)CCc1cccnc1C2=C1CCNCC1 [desloratadine]
- Severity of pruritis, number of hives, size of largest hive, total symptom score [1]: significantly reduced
- Reduction of nasal symptoms versus placebo ([2]; 5 mg): significantly (p<0.01) more effective than placebo
- Total symptom scores ([2]; 5 mg once daily): significantly reduced
- AM NOW total symptom score ([2]; full 24 hour dosing interval, 5 mg to 20 mg): Statistically significant (p<0.05) reductions

Compound: CC[C@H](C)C(=O)O[C@H]1C[C@@H](C)C=C2C=C[C@H](C)[C@H](CC[C@@H]3C[C@@H](O)CC(=O)O3)[C@H]21 [lovastatin]
- Inhibition of rat OATP1 (rat OATP1; at 50 μM): effectively inhibit
- Inhibition of human OATP1 (human OATP1): effectively inhibits
- Inhibition of fexofenadine uptake (human OATP): significant inhibition
